Earlier results on seven compounds are cited in patent US6251620A, “Three dimensional structure of a ZAP tyrosine protein kinase fragment and modeling methods” (priority 1997, dated 2001).

Data set [1] concerns BDF1 mice. The settings on record: BDF1 mice given DBA/2 spleen:lymph node cells; usable as positive controls.
The subject of data set [2] is MRL/Ipr-mice. The note with it: SLE.
Data set [3] concerns ZAP-NC. The note with it: in vitro binding of ZAP-NC with synthetic phosphopeptides (ref. 25).

Non-standard residues stand in square brackets, D forms with d. pY = N[C@@H](Cc1ccc(OP(=O)(O)O)cc1)C(=O)O; Nle = CCCC[C@H](N)C(=O)O

Regarding `C=CC[C@@H]1/C=C(\C)C[C@H](C)C[C@H](OC)[C@H]2O[C@@](O)(C(=O)C(=O)N3CCCC[C@H]3C(=O)O[C@H](/C(C)=C/[C@@H]3CC[C@@H](O)[C@H](OC)C3)[C@H](C)[C@@H](O)CC1=O)[C@H](C)C[C@@H]2OC` [FK506], under “kidney and central nervous system”, the side effects result was “serious side effects in the kidney and central nervous system”. Further, where the note is “patients receiving FK506, in some cases kidney transplant required after the liver transplant”, the kidney toxicity entry is reported as “severe kidney toxicity has been observed”. The “activity in CGVHD model” value in data set [1] is listed as “active in this model”.

As to `O=P1(N(CCCl)CCCl)NCCCO1` (centres unmarked) [cyclophosphamide], the “effect on course of disease” value in data set [2] was “can prevent and reverse the course of disease”. The “activity in CGVHD model” value in data set [1] was “active in this model”.

As to `Cc1oncc1C(=O)Nc1ccc(C(F)(F)F)cc1` [leflunomide], the “effect on course of disease” value in data set [2] is “can prevent and reverse the course of disease”. In data set [1], the “activity in CGVHD model” value is “active in this model”.

Consider `C[C@]12C=CC(=O)C=C1CC[C@@H]1[C@@H]2[C@@H](O)C[C@@]2(C)[C@H]1CC[C@]2(O)C(=O)CO` [prednisolone], for which the “activity in CGVHD model” value in data set [1] is given as “active in this model”.

With “Ac.Asn.Gln.Leu.pTyr.Asn.Glu.Leu.Asn.Leu.Gly.Arg.Arg.Glu.Glu.pTyr.Asp.Val.Leu.Asp.NH2 [Ligand 5]”, in data set [3], the binding hierarchy result is “.zeta.1 =.zeta.2 >ε=.zeta.3”.

For the compound “Ac.Asp.Gly.Leu.pTyr.Gln.Gly.Leu.Ser.Thr.Ala.Thr.Lys.Asp.Thr.pTyr.Asp.Ala.Leu.His.NH2 (Ac-DGL[pY]QGLSTATKDT[pY]DALH-NH2; SMILES CC(=O)N[C@@H](CC(=O)O)C(=O)NCC(=O)N[C@@H](CC(C)C)C(=O)N[C@@H](Cc1ccc(OP(=O)(O)O)cc1)C(=O)N[C@@H](CCC(N)=O)C(=O)NCC(=O)N[C@@H](CC(C)C)C(=O)N[C@@H](CO)C(=O)N[C@H](C(=O)N[C@@H](C)C(=O)N[C@H](C(=O)N[C@@H](CCCCN)C(=O)N[C@@H](CC(=O)O)C(=O)N[C@H](C(=O)N[C@@H](Cc1ccc(OP(=O)(O)O)cc1)C(=O)N[C@@H](CC(=O)O)C(=O)N[C@@H](C)C(=O)N[C@@H](CC(C)C)C(=O)N[C@@H](Cc1c[nH]cn1)C(N)=O)[C@@H](C)O)[C@@H](C)O)[C@@H](C)O) [Ligand 7]”, the binding hierarchy entry in data set [3] is “.zeta.1 =.zeta.2 >ε=.zeta.3”.

Consider “Ac.Gly.Leu.pTyr.Asn.Glu.Leu.Gln.Lys.Asp.Lys.Nle.Ala.Glu.Ala.pTyr.Ser.Glu.Ile.Gly.NH2 (Ac-GL[pY]NELQKDK[Nle]AEA[pY]SEIG-NH2; SMILES CCCC[C@H](NC(=O)[C@H](CCCCN)NC(=O)[C@H](CC(=O)O)NC(=O)[C@H](CCCCN)NC(=O)[C@H](CCC(N)=O)NC(=O)[C@H](CC(C)C)NC(=O)[C@H](CCC(=O)O)NC(=O)[C@H](CC(N)=O)NC(=O)[C@H](Cc1ccc(OP(=O)(O)O)cc1)NC(=O)[C@H](CC(C)C)NC(=O)CNC(C)=O)C(=O)N[C@@H](C)C(=O)N[C@@H](CCC(=O)O)C(=O)N[C@@H](C)C(=O)N[C@@H](Cc1ccc(OP(=O)(O)O)cc1)C(=O)N[C@@H](CO)C(=O)N[C@@H](CCC(=O)O)C(=O)N[C@H](C(=O)NCC(N)=O)[C@@H](C)CC) [Ligand 6]”, for which the binding hierarchy entry in data set [3] was “.zeta.1 =.zeta.2 >ε=.zeta.3”.
